Read-outs that look alike come from different tables or passages of the source.
Key:
SKOV-3 (ATCC HTB-77) = experiment: SKOV-3 EdU incorporation cell proliferation assay (CDK4/6-dependent); type: cell-based; details: Homo sapiens
Procedure, shortened: (§1)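 Cells in RPMI/10% FBS dosed with compound (0.5% DMSO final) for 16 h at 37 °C, 5% CO2, then EdU 0.5 μM final for 8 h before fixation and imaging. IC50 from 4-parameter logistic fit of EdU-positive cell fraction versus dose.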

HCT116 cells = experiment: p-H3 HCT-116 mitotic release cell proliferation assay (cellular CDK1); type: cell-based; details: Homo sapiens
Procedure, shortened: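 HCT116 cells arrested 16 h with 500 nM nocodazole, then exposed to compound for 4 h at 37 °C (0.1% DMSO). Lysates read by HTRF/FRET with donor and acceptor phospho-Histone H3 (Ser10) antibodies, ≥2 h at room temperature; CDK1 inhibition seen as loss of p-H3 on mitotic release.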

[1] = system: OVISE (JCRB1043, CCNE1-amplified); experiment: OVISE EdU incorporation cell proliferation assay (CDK2-dependent); type: cell-based; details: for IC50: read-out: CDK2 OVISE IC50; for FS SKOV-3/OVISE / FS p-H3/OVISE: fold selectivity; for FS SKOV-3/OVISE: cellular SKOV-3 IC50 over OVISE IC50; for FS p-H3/OVISE: cellular p-H3 IC50 over OVISE IC50
Procedure, shortened: as §1

[2] = molecular target: T1, Cyclin Dependent Kinase 1/Cyclin A2 (CDK1-cycA2) (Homo sapiens, UniProt P06493); experiment: CDK1-cycA2 TR-FRET (Lance) enzyme assay; type: biochemical; details: Table O, enzymatic assay
T1 construct: purchased ProQinase 0134-0054-1
Procedure, shortened: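 Human CDK1/cyclin A2 pre-incubated 30 min with compound dose responses in 50 mM HEPES pH 7.5, 10 mM MgCl2, 2 mM TCEP, 0.05% BGG, 0.01% Brij 35. Reaction quenched with EDTA (15 mM final); TR-FRET readout using Eu-anti-phospho-4E-BP1, acceptor/donor ratio. Inhibition constants from Morrison equation.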

[3] = molecular target: T2, Cyclin Dependent Kinase 4/Cyclin D3 (CDK4-cycD3) (Homo sapiens, UniProt P11802); experiment: CDK4-cycD3 TR-FRET (LANCE) enzyme assay; type: biochemical; details: Table O, enzymatic assay
T2 construct: purchased Carna Biosciences 04-105
Procedure, shortened: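 Compound dose responses pre-incubated 30 min with enzyme mix in 50 mM HEPES pH 7.5, 10 mM MgCl2, 2 mM TCEP, 0.05% BGG, 0.01% Brij 35. Reaction quenched with EDTA (15 mM final); Eu-anti-phospho-4E-BP1 TR-FRET detection, acceptor/donor ratio. Ki derived by Morrison equation.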

[4] = molecular target: T3, Cyclin Dependent Kinase 2/Cyclin E1 (CDK2-cycE1) (Homo sapiens, UniProt P24941); experiment: CDK2-cycE1 TR-FRET (LANCE) enzyme assay; type: biochemical; details: Table O; for Ki: enzymatic assay, read-out: CDK2 Ki; for FS CDK1/CDK2 / FS CDK4/CDK2: fold selectivity; for FS CDK1/CDK2: enzymatic CDK1 Ki over CDK2 Ki; for FS CDK4/CDK2: enzymatic CDK4 Ki over CDK2 Ki
T3 construct: purchased ProQinase 0050-0055-1
Procedure, shortened: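 Compound dose responses pre-incubated 30 min with CDK2-cycE1 in 50 mM HEPES pH 7.5, 10 mM MgCl2, 2 mM TCEP, 0.05% BGG, 0.01% Brij 35. Reaction quenched with EDTA (15 mM final), phospho-MBP detected by Eu-anti-phospho-MBP TR-FRET (acceptor/donor ratio). Inhibition constants from Morrison equation.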

[5] = SK-OV-3, Table O, cellular assay, read-out: CDK4/6 SKOV-3 IC50
[6] = HCT-116, Table O, cellular assay, read-out: CDK1 p-H3 IC50

T2 sequence (P11802 whole entry): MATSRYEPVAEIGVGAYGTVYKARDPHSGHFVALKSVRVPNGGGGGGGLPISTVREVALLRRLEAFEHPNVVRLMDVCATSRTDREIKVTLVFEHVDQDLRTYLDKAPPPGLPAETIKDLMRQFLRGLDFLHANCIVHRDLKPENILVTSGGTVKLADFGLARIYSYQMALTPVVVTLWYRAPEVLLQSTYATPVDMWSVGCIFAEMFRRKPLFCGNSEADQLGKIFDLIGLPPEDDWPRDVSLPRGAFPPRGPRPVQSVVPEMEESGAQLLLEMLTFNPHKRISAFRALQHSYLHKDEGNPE
T2 sequence (P30281 whole entry partner): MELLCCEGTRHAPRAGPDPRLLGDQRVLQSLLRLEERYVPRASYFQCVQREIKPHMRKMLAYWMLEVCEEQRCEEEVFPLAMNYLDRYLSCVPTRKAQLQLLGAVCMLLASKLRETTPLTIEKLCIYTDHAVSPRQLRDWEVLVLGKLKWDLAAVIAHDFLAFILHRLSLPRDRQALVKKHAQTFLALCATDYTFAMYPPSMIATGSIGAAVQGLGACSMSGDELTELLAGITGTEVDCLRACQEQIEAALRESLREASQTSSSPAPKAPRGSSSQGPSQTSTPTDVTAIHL
T1 sequence (P06493 whole entry): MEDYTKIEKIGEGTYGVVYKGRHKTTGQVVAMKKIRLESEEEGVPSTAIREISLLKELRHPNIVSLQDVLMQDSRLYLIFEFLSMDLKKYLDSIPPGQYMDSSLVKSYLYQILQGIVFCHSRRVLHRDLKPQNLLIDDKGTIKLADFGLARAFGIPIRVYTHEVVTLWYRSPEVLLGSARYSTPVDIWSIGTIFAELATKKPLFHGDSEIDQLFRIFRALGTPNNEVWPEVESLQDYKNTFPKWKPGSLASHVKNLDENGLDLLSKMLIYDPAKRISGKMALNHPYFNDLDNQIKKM
T1 sequence (P20248 whole entry partner): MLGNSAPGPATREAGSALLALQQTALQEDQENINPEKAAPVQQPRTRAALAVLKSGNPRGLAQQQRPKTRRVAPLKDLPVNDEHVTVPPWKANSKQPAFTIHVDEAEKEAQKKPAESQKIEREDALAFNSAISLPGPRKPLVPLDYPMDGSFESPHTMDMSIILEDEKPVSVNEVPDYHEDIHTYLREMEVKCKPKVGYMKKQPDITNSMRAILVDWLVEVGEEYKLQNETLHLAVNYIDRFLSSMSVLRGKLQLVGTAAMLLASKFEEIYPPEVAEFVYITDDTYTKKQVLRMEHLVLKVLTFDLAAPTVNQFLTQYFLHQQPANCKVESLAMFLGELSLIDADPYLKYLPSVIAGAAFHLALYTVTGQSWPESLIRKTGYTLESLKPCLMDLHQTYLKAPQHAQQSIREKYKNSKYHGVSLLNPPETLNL

IC50 (SKOV-3 (ATCC HTB-77); [5]) [µM] | IC50 (HCT116 cells; [6]) [µM] | Ki [2] [µM] | Ki [3] [µM] | Ki [4] [µM] | FS CDK1/CDK2 [4] | FS CDK4/CDK2 [4] | Compound | IC50 ([1]; Table O, cellular assay) [µM] | FS SKOV-3/OVISE ([1]; Table O) | FS p-H3/OVISE ([1]; Table O) | IC50 (SKOV-3 (ATCC HTB-77); SK-OV-3, read-out: CDK4/6 SKOV-3 IC50) [µM] | IC50 (HCT116 cells; HCT-116, read-out: CDK1 p-H3 IC50) [µM] | IC50 [1] [µM]
0.28 | 0.039 | 0.064 | 0.017 | 0.0019 | 34 | 8.9 | CN(C)Cc1ccc(Nc2cc([C@H]3CC[C@@H](OC(=O)NC45CC(C4)C5)C3)[nH]n2)cn1 [Example 9J, (1R,3S)-3-(3-((6-((dimethylamino)methyl)pyridin-3-yl)amino)-1H-pyrazol-5-yl)cyclopentyl bicyclo[1.1.1]pentan-1-ylcarbamate] | 0.089 | 3.1 | 0.44 |  |  | 
0.71 | 0.049 | 0.041 | 0.067 | 0.0056 | 7.3 | 12 | O=C(NC12CC(C1)C2)O[C@@H]1CC[C@H](c2cc(Nc3ccc(N4CCOCC4)nc3)n[nH]2)C1 [Example 9K, (1R,3S)-3-(3-((6-morpholinopyridin-3-yl)amino)-1H-pyrazol-5-yl)cyclopentyl bicyclo[1.1.1]pentan-1-ylcarbamate] | 0.19 | 3.7 | 0.26 |  |  | 
5.7 | 0.18 | 0.058 | 0.051 | 0.0018 | 32 | 28 | CC(C)(C)NC(=O)O[C@@H]1CC[C@H](c2cc(Nc3ccnc(CO)c3)n[nH]2)C1 [Example 10C, (1R,3S)-3-(3-((2-(hydroxymethyl)pyridin-4-yl)amino)-1H-pyrazol-5-yl)cyclopentyl tert-butylcarbamate] | 0.13 | 44 | 1.4 |  |  | 
2.8 | 0.097 | 0.059 | 0.086 | 0.00044 | 134 | 195 | Cc1nc(C#N)ccc1Nc1cc([C@H]2CC[C@@H](OC(=O)NC(C)(C)C)C2)[nH]n1 [Example 10D, (1R,3S)-3-(3-((6-cyano-2-methylpyridin-3-yl)amino)-1H-pyrazol-5-yl)cyclopentyl tert-butylcarbamate] | 0.046 | 61 | 2.1 |  |  | 
12 | 0.23 | 0.083 | 0.28 | 0.00063 | 132 | 444 | Cc1nnccc1Nc1cc([C@H]2CC[C@@H](OC(=O)NC(C)(C)C)C2)[nH]n1 [Example 11A, (1R,3S)-3-(3-((3-methylpyridazin-4-yl)amino)-1H-pyrazol-5-yl)cyclopentyl tert-butylcarbamate] | 0.12 | 100 | 1.9 |  |  | 

Compound | IC50 (SKOV-3 (ATCC HTB-77); [5]) [µM] | IC50 (HCT116 cells; [6]) [µM] | Ki [2] [µM] | Ki [3] [µM] | Ki [4] [µM] | FS CDK1/CDK2 [4] | FS CDK4/CDK2 [4] | IC50 ([1]; Table O, cellular assay) [µM] | FS SKOV-3/OVISE ([1]; Table O) | FS p-H3/OVISE ([1]; Table O) | IC50 (SKOV-3 (ATCC HTB-77); SK-OV-3, read-out: CDK4/6 SKOV-3 IC50) [µM] | IC50 (HCT116 cells; HCT-116, read-out: CDK1 p-H3 IC50) [µM] | IC50 [1] [µM]
CC1(NC(=O)O[C@@H]2CC[C@H](c3cc(Nc4ccc(C#N)cn4)n[nH]3)C2)COC1 [Example 10E, (1R,3S)-3-(3-((5-cyanopyridin-2-yl)amino)-1H-pyrazol-5-yl)cyclopentyl (3-methyloxetan-3-yl)carbamate] |  |  | 0.025 | 0.064 | 0.00078 | 32 | 82 |  | 20 | 1.1 | 2.2 | 0.12 | 0.11

— US20240425478A1, “CYCLOPENTYLPYRAZOLE CDK2 INHIBITORS” (Genentech, Inc., priority 2021, published 2024)
